# Measurements: patent publication US20250051375A1, “ANTI-HIV COMPOUNDS” (Gilead Sciences, Inc., priority 2023, published 2025)
# Read-outs that look alike come from different tables or passages of the source.
# Assays:
# [1] = system: HIV-1 IIIB strain; assay: MT-4 HIV Wild Type Virus Infection Assay (IIIB Virus); assay type: cell-based; conditions: MT-4 cells acutely infected with HIV-1 IIIB, 5 day incubation, Cell-titer glo
# Outline: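 MT-4 cells at 2×10^6 cells/ml in RPMI/10% FBS were acutely infected with HIV-1 IIIB for 1 h at 37° C, diluted 25× and added to serially diluted compounds. After 5 days at 37° C, viability read by CellTiter-Glo luminescence; EC50 from dose-response curves.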
# [2] = target: bovine intestinal alkaline phosphatase (Bos taurus (Bovine), UniProt P19111); assay: BiALP: conversion by bovine intestinal alkaline phosphatase; assay type: in vitro ADME; conditions: 2 μM substrate, 100 ng/mL iALP, Tris pH 7.8, 37° C., 60 minutes; for [Intermediate A] or [Amprenavir]: parent formed
# Outline: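 Compounds at 2 μM final were incubated 60 min at 37° C in 0.1 M Tris-HCl pH 7.8 with 1 mM MgCl2 and 1 mM ZnCl2, with or without 100 ng/mL iALP (0.01 units/mL). Samples were quenched with acetonitrile/formic acid containing labetalol. Conversion was quantified by LC-MS peak area ratios against a 2 μM product standard.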
# [3] = PBS Stability Assay; assay type: physicochemical; conditions: phosphate buffered saline pH 7.4; for half-life at 2 μM: buffer, pH 7.4, 2 μM, read-out: PBS T½
# Outline: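 Test compound at 2 μM final was incubated in PBS, pH 7.4, and sampled at 0, 10, 20, 30, 60 and 120 min into acetonitrile/1% formic acid quench with labetalol internal standard. Remaining compound was quantified by LC-MS peak-area ratio, and half-life came from a first-order exponential fit.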
# [4] = Solubility in FaSSIF; conditions: for solubility at 2 h: 23 °C, pH 6.5, fassif, thermodynamic from solid; for FaSSIF (pH 6.5) solubility: FaSSIF pH 6.5, dose 5 mg/mL, 2-hour incubation, ambient temperature
# Outline: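 Concentration measured by HPLC-UV after solid compound was dosed at 5 mg/mL into pH 6.5 fasted-state simulated intestinal fluid containing taurocholate and lecithin (4:1 molar) and vortexed.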
# [5] = Human immunodeficiency virus 1, IIIB, MT4, 120 h
# bovine intestinal alkaline phosphatase, sequence (P19111 20-506): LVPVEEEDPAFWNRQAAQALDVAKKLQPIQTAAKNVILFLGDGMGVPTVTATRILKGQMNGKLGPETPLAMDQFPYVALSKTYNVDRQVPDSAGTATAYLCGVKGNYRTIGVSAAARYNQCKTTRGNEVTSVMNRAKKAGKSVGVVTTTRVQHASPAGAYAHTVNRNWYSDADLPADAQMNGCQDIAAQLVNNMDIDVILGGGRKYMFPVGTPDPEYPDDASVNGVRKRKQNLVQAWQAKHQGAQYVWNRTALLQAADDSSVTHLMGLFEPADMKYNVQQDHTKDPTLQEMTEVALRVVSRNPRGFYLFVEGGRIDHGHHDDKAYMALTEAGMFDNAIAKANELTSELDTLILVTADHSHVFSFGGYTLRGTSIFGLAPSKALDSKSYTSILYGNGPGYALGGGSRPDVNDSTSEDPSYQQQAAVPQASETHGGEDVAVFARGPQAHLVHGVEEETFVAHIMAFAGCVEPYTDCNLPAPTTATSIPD
SMILES,"EC50 [1, 5]",[Compound] [2],half-life at 2 μM [3],solubility at 2 h [4],biALP Intermediate A or [Amprenavir] (% of total) [2],[Intermediate A] or [Amprenavir] [2],EC50 ([1]; read-out: EC50),PBS T½ ([3]; 2 μM),FaSSIF (pH 6.5) solubility [4],"EC50 ([1]; Human immunodeficiency virus 1, IIIB, MT4, 120 h, read-out: EC50)"
COC(=O)N[C@H](C(=O)N[C@@H](Cc1ccc(C#Cc2cnc(N3CC4CCC(C3)N4C3COC3)nc2)cc1)[C@H](CN(Cc1c(F)cc(-c2ccn(C(F)F)n2)cc1F)NC(=O)[C@@H](NC(=O)OC)C(C)(C)C(F)(F)F)OC(=O)CC(C)(C)c1c(CC(=O)N(CCCC(=O)O)CCC(=O)O)cc(C)cc1OP(=O)(O)O)C(C)(C)C(F)(F)F [Example 36],97.4 nM,1383.3 nM,656 min,4260 µg/mL,,,,,,
"COC(=O)N[C@H](C(=O)N[C@@H](Cc1ccc(C#Cc2cnc(N3CC4CCC(C3)N4C3COC3)nc2)cc1)[C@H](CN(Cc1c(F)cc(-c2ccn(C(F)F)n2)cc1F)NC(=O)[C@@H](NC(=O)OC)C(C)(C)C(F)(F)F)OC(=O)CC(C)(C)c1c(CC(=O)NCc2ccc(C(F)F)cc2)cc(C)cc1OP(=O)(O)O)C(C)(C)C(F)(F)F [Example 50, (5S,10S,11S,14S)-8-(4-(1-(difluoromethyl)-1H-pyrazol-3-yl)-2,6-difluorobenzyl)-11-(4-((2-(8-(oxetan-3-yl)-3,8-diazabicyclo[3.2.1]octan-3-yl)pyrimidin-5-yl)ethynyl)benzyl)-3,6,13,16-tetraoxo-5,14-bis(1,1,1-trifluoro-2-methylpropan-2-yl)-2,17-dioxa-4,7,8,12,15-pentaazaoctadecan-10-yl 3-(2-(2-((4-(difluoromethyl)benzyl)amino)-2-oxoethyl)-4-methyl-6-(phosphonooxy)phenyl)-3-methylbutanoate]",1720 nM,2228.1 nM,496 min,< 1000 µg/mL,0 % of total,0.3 nM,,,,
COC(=O)N[C@H](C(=O)N[C@@H](Cc1ccc(C#Cc2cnc(N3CC4CCC(C3)N4C3COC3)nc2)cc1)[C@H](CN(Cc1c(F)cc(-c2ccn(C(F)F)n2)cc1F)NC(=O)[C@@H](NC(=O)OC)C(C)(C)C(F)(F)F)OC(=O)CC(C)(C)c1c(CC(=O)N(C)[C@@H](C)C(=O)O)cc(C)cc1OP(=O)(O)O)C(C)(C)C(F)(F)F [Example 97],204 nM,1772.9 nM,279 min,4660 µg/mL,,,,,,
COC(=O)N[C@H](C(=O)N[C@@H](Cc1ccc(C#Cc2cnc(N3CC4CCC(C3)N4C3COC3)nc2)cc1)[C@H](CN(Cc1c(F)cc(-c2ccn(C(F)F)n2)cc1F)NC(=O)[C@@H](NC(=O)OC)C(C)(C)C(F)(F)F)OC(=O)O[C@H](C)OC(=O)CC(C)(C)c1c(CC(=O)O)cc(C)cc1OP(=O)(O)O)C(C)(C)C(F)(F)F [Example 65],,1224.6 nM,,,,,12.6 nM,668.9 min,1310 μg/mL,
COC(=O)N[C@H](C(=O)N[C@@H](Cc1ccc(C#Cc2cnc(N3CC4CCC(C3)N4C3COC3)nc2)cc1)[C@H](CN(Cc1c(F)cc(-c2ccn(C(F)F)n2)cc1F)NC(=O)[C@@H](NC(=O)OC)C(C)(C)C(F)(F)F)OC(=O)OCOC(=O)CC(C)(C)c1c(CC(=O)N2CCN(S(=O)(=O)N(C)C)CC2)cc(C)cc1OP(=O)(O)O)C(C)(C)C(F)(F)F [Example 86],4.1 nM,1890 nM,155 min,< 1000 µg/mL,5.6 % of total,112.9 nM,,,,
COC(=O)N[C@H](C(=O)N[C@@H](Cc1ccc(C#Cc2cnc(N3CC4CCC(C3)N4C3COC3)nc2)cc1)[C@H](CN(Cc1c(F)cc(-c2ccn(C(F)F)n2)cc1F)NC(=O)[C@@H](NC(=O)OC)C(C)(C)C(F)(F)F)OC(=O)OC(C)OC(=O)CC(C)(C)c1c(CC(=O)O)cc(C)cc1OP(=O)(O)O)C(C)(C)C(F)(F)F (stereo in doubt) [Example 64],,1271 nM,506 min,,,,,,165 μg/mL,11.1 nM
